Data set [1] is described as follows: Clearance in rat at 1 mg/kg, iv. The data set is classed as ADME, organism-based. The note with it: in vivo.
Data set [2] is described as follows: Thermodynamic aqueous solubility of the compound in pH 7.2. The data set is classed as physicochemical. The note with it: buffer, read-out: Therm_solubility.
The target in data set [3] is CaM kinase II alpha/beta (Rattus norvegicus, UniProt P08413+P11275). Briefly: Inhibition of CaMK2alpha/beta in neonatal rat cortical neurons assessed as phospholamban phosphorylation after 4 hrs by Hoechst 33342 fluorescence-based assay. The format is protein-complex assay.
CaM kinase II alpha/beta, sequence (P11275 whole entry): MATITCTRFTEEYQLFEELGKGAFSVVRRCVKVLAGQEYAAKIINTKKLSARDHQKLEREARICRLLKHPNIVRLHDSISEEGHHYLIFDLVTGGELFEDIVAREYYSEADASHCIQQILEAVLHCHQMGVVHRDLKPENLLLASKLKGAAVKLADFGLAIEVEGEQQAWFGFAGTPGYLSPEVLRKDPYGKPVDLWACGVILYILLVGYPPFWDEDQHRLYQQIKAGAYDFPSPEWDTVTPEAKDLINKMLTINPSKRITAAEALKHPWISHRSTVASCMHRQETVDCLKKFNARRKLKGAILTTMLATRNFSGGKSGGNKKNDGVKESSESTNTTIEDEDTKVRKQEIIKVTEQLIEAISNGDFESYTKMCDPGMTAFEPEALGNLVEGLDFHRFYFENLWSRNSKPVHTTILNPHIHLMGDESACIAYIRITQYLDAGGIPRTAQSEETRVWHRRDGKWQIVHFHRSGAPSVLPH
CaM kinase II alpha/beta, sequence (P08413 whole entry): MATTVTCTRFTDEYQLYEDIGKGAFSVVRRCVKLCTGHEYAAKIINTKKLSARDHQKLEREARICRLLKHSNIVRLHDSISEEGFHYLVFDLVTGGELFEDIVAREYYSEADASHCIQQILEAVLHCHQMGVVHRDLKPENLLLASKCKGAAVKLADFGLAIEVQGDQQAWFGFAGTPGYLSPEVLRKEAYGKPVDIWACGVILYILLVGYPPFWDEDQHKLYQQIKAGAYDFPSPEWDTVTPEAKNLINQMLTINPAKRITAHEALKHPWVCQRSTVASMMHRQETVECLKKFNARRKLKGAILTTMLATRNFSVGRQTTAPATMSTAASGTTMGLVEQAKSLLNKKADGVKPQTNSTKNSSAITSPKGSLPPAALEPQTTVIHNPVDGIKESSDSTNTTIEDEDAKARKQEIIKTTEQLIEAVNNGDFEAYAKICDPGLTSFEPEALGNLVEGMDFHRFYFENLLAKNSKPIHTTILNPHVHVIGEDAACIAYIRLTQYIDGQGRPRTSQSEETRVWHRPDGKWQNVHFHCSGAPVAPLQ
Data set [4] concerns the target Voltage-gated inwardly rectifying potassium channel KCNH2 (Homo sapiens, UniProt Q12809). Briefly: Inhibition of human ERG.
Data set [5] can be described thus: Half life in rat liver microsomes. The format is ADME, microsome. For orientation: Liver microsomes are a subcellular fraction often used to study metabolism.
Data set [6] is described as follows: Unbound plasma concentration in dog. The format is ADME, organism-based, Canis lupus familiaris.
A short description of data set [7]: Thermodynamic aqueous solubility of the compound in pH 2.2. The format is physicochemical. As to conditions: buffer, read-out: Therm_solubility.
Data set [8] is described as follows: Half life in rat at 1 mg/kg, iv. The data set is classed as ADME, organism-based. As to conditions: in vivo.
Data set [9] in a line: Unbound plasma concentration in rat. The format is ADME, organism-based.
Data set [10] can be described thus: Half life in dog liver microsomes. The data set is classed as ADME, Canis lupus familiaris, microsome.
Data set [11] is described as follows: Half life in human liver microsomes. The data set is classed as ADME, microsome.
A short description of data set [12]: Unbound plasma concentration in human. The data set is classed as ADME, organism-based.
Data set [13] can be described thus: Volume of distribution at steady state in rat at 1 mg/kg, iv. The data set is classed as ADME, organism-based. As to conditions: in vivo, read-out: Vdss.
Data set [14] has as its target CaM kinase II delta/gamma (Rattus norvegicus, UniProt P11730+P15791). The experiment in a line: Inhibition of CaMK2gamma/delta in neonatal rat ventricular myocytes assessed as phospholamban phosphorylation after 4 hrs by Hoechst 33342 fluorescence based assay. The format is cell-based.
Data set [15] in a line: AUC (0 to infinity) in rat at 5 mg/kg, po. The data set is classed as ADME, organism-based. Also noted: dose 5 mg/kg, time infinity, route oral. The note with it: in vivo.
Data set [16] deals with Cytochrome P450 3A4 (Homo sapiens, UniProt P08684). The experiment in a line: Inhibition of CYP3A4 (unknown origin). The format is ADME.
Cytochrome P450 3A4, sequence (P08684 whole entry): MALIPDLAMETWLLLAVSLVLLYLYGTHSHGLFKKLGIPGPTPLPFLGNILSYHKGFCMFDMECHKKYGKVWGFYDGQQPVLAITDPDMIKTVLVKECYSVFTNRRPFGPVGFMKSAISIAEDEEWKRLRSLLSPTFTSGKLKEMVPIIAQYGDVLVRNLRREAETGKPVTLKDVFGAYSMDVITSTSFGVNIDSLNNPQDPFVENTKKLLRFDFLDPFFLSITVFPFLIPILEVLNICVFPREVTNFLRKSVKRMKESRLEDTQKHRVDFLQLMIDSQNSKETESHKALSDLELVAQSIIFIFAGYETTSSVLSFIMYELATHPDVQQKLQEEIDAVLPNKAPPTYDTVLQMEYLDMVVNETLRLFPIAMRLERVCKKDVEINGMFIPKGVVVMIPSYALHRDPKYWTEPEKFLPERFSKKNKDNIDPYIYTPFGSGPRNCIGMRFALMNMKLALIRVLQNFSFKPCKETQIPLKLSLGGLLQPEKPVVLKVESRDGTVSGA
Data set [17] concerns the target Cytochrome P450 2C9 (Homo sapiens, UniProt P11712). Briefly: Inhibition of CYP2C9 (unknown origin). The data set is classed as ADME.
Data set [18] is described as follows: Oral bioavailability in rat at 5 mg/kg. As to conditions: in vivo. The data set is classed as ADME, organism-based.
In data set [19] the target is Cytochrome P450 2D6 (Homo sapiens, UniProt P10635). The experiment in a line: Inhibition of CYP2D6 (unknown origin). The data set is classed as ADME.
For data set [20], the target named is Cytochrome P450 2C19 (Homo sapiens, UniProt P33261). The experiment in a line: Inhibition of CYP2C19 (unknown origin). The data set is classed as ADME.
Cytochrome P450 2C19, sequence (P33261 whole entry): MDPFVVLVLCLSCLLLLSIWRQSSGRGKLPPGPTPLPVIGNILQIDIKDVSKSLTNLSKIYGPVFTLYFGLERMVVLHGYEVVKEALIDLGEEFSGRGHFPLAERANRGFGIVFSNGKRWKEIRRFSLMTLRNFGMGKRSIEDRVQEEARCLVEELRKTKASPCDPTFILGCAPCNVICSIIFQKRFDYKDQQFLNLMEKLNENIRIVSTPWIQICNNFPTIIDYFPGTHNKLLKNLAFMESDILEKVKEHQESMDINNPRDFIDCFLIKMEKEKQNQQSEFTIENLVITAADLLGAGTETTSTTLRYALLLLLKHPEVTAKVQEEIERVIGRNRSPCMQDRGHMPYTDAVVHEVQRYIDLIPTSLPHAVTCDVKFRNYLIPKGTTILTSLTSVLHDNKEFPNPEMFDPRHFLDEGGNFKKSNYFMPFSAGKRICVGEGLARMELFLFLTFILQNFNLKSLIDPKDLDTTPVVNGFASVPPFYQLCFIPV
The target in data set [21] is T1, Cytochrome P450 1A2 (Homo sapiens, UniProt P05177).
T1 sequence (P05177 whole entry): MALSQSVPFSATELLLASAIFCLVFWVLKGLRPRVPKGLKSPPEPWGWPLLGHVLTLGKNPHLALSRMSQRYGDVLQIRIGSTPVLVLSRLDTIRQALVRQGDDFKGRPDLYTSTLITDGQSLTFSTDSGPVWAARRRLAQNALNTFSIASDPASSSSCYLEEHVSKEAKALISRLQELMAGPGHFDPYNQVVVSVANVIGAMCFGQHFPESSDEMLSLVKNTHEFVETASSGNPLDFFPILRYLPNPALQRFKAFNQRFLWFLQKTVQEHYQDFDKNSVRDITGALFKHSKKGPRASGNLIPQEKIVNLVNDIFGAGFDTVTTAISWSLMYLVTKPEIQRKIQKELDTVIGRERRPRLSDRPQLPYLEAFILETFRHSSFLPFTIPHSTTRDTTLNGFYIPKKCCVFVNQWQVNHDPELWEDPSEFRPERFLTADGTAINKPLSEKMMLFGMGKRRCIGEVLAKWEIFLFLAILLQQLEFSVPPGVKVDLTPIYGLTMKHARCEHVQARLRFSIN
The experiment in a line: Inhibition of CYP1A2 (unknown origin). The data set is classed as ADME.

In brackets after ≈: the same amount, converted by molar mass. A value given as a limit tells only on which side of the number the result lay.

Voltage-gated inwardly rectifying potassium channel KCNH2, sequence (Q12809 whole entry): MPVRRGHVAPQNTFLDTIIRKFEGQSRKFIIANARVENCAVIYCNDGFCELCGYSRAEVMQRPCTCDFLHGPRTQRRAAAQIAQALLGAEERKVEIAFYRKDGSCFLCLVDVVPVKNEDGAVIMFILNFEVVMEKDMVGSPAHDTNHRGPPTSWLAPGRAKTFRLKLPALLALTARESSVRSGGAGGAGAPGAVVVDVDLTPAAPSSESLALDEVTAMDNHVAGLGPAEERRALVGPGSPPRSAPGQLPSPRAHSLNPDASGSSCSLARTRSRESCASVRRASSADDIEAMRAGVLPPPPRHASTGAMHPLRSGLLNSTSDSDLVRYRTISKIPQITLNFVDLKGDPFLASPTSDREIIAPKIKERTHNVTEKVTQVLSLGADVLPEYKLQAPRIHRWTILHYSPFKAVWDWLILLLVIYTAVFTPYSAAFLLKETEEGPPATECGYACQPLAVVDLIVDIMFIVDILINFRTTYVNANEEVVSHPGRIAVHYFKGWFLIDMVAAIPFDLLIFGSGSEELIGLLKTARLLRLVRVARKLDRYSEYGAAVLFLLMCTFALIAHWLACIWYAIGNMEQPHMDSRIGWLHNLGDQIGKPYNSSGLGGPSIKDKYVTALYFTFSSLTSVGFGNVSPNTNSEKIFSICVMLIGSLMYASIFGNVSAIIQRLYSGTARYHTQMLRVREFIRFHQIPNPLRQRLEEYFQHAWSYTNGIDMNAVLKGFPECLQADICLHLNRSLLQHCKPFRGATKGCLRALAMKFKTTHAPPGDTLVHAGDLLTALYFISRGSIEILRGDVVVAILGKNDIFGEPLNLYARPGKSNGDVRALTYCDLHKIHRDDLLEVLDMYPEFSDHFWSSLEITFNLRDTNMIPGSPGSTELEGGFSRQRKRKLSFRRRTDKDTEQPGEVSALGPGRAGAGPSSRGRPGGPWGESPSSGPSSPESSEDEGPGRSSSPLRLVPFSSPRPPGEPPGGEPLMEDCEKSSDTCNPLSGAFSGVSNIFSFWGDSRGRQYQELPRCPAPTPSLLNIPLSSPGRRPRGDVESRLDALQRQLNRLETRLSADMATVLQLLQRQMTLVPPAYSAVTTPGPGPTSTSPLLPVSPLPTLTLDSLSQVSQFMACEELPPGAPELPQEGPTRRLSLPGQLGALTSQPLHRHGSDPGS
CaM kinase II delta/gamma, sequence (P15791 whole entry): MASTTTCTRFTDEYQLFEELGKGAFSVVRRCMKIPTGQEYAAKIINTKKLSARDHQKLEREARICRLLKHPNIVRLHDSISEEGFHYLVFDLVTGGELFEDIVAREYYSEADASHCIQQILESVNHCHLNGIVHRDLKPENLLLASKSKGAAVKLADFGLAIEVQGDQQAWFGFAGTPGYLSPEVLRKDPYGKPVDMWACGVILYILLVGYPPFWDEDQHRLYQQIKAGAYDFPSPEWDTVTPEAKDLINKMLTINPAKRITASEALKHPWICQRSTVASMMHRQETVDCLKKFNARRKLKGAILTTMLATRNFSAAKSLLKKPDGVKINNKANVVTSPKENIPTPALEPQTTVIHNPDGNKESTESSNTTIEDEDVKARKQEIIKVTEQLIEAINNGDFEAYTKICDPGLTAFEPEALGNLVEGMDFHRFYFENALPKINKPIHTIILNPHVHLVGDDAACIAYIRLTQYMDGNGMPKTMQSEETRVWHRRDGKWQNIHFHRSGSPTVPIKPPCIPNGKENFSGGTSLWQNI
CaM kinase II delta/gamma, sequence (P11730 whole entry): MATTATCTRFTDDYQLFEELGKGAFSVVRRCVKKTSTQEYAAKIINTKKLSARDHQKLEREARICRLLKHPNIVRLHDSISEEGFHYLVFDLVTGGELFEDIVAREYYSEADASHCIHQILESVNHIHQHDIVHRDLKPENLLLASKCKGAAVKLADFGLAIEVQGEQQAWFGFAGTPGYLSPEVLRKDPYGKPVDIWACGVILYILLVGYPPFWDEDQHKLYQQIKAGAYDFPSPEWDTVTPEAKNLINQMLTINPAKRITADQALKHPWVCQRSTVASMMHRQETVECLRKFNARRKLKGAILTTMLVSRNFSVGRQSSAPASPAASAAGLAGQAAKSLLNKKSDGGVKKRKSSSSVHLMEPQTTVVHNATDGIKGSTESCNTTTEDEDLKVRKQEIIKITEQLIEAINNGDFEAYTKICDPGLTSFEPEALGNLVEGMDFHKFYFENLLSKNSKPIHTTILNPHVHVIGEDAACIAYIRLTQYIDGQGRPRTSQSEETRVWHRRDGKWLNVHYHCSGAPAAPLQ
Cytochrome P450 2C9, sequence (P11712 whole entry): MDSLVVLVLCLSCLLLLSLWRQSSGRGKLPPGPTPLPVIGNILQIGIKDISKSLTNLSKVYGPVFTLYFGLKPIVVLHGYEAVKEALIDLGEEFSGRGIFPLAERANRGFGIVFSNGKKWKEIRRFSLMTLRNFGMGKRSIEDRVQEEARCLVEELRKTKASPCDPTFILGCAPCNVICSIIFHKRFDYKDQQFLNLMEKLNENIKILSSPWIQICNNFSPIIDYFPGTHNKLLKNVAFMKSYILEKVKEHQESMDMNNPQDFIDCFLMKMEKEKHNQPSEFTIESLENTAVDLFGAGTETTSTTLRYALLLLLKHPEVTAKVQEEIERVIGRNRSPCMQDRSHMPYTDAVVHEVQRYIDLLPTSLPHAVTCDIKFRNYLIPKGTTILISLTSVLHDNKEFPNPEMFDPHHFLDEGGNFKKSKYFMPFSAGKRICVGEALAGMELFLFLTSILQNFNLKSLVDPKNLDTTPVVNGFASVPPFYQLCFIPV

By clearance is commonly meant the rate of elimination divided by the concentration. Read a low clearance as a low capacity for elimination. What is called EC50 is the concentration giving half of the maximal effect. As a reminder, the IC50 is the concentration needed to halve the response being measured. As usually defined, the half-life is the time in which the quantity being followed falls by half. One may read the fraction unbound as free concentration divided by total concentration. A low value points to extensive binding. On to `CCN(CC)[C@@H](C)CNC(=O)c1cc(-c2cnn3ccc(-c4cccs4)nc23)nc(N2CC(O)C2)c1`, for which the clearance in data set [1] is 80.8 mL/min/kg. Further, the results for the solubility thermodynamic in data set [2] and in data set [7] were 8400 µg/mL (≈ 16.6 mM) and 15000 µg/mL (≈ 29.7 mM), respectively. Further, the EC50 in data set [3] was determined as 274 nM; in [14], 6.2 nM. The half-inhibitory concentration (IC50) in data set [4] is > 30000 nM. The half-life is 48 min in data set [5], 353 min in data set [8], 27 min in data set [10] and 58 min in data set [11]. The fraction unbound turned out to be 0.291 in data set [6], 0.363 in data set [9] and 0.177 in data set [12]. Also, the Vd in data set [13] was 22.1 L/kg.
With `CCN(CC)CCNC(=O)c1ccnc(-c2cnn3ccc(-c4cccs4)nc23)c1`, in data set [4], the IC50 turned out to be 1170 nM.
The same measure, in the same setting: the value for `CCN(CC)[C@@H](C)CNC(=O)c1ccnc(-c2cnn3ccc(-c4cccs4)nc23)c1` was 718 nM.
In general, AUC(0-inf) refers to the area under the concentration-time curve extrapolated to infinity. Lower therefore signals low exposure. One may read the bioavailability as dose-corrected exposure relative to a reference, in per cent. Low values mean poor availability, high ones good availability. `CCN(CC)[C@@H](C)CNC(=O)c1cc(-c2cnn3ccc(-c4cccs4)nc23)nc(N2CC(OC)C2)c1` gave a clearance in data set [1] of 25.5 mL/min/kg. In addition, the values for the solubility thermodynamic in data set [2] and in [7] were 200 µg/mL (≈ 0.385 mM) and > 20000 µg/mL, respectively. For the same compound, the half-maximal effective concentration (EC50) is 120 nM in data set [3] and 7.4 nM in data set [14]. Also, the AUC(0-inf) in [15] was determined as 3 µM·h. The half-life in data set [5] is 61 min; in data set [8], 258 min; in data set [10], 43 min; in data set [11], 62 min. In addition, the IC50 in [16], in data set [17], in data set [19], in data set [20] and in data set [21] was > 25000 nM throughout. The fraction unbound is 0.159 in data set [6], 0.151 in [9] and 0.071 in data set [12]. In data set [18], the bioavailability came out at 73%. In data set [13], the Vd was determined as 7.34 L/kg.
As to `CCc1cc(C(=O)NC[C@H](C)N(CC)CC)cc(-c2cnn3ccc(-c4cccs4)nc23)n1`, the IC50 in [4] is 3280 nM.
